Measurements published in US20220133702A1, “CYSTIC FIBROSIS TRANSMEMBRANE CONDUCTANCE REGULATOR MODULATORS FOR TREATING AUTOSOMAL DOMINANT POLYCYSTIC KIDNEY DISEASE” (The Johns Hopkins University, priority 2020, published 2022).

Experiments:
[1] = system: GADD153; assay: GADD153 immunostaining of kidney sections; assay type: in vivo; settings: PN21 mouse kidney sections, vs DMSO
Excerpt: FIG. 12A, FIG. 12B, and FIG. 12C show GADD153 expression in kidneys of Pkd1fllfl; Pax8^rtTA; TetO-cre mice. Immunofluorescence images representing the GADD expression (green) in DMSO (FIG. 12A) or VX-809 (FIG. 12B) treated PN21 Pkd1^fl/fl mouse. Columns (FIG. 12C) represent % area of GADD immunopositive (green) cells in DMSO or VX-809 treated PN21 Pkd1^fl/fl mouse kidney sections. Data are expressed as mean±1 SEM of DMSO (vehicle)-treated (n=4) and VX-809-treated (n=4) mice. Statistical analysis was performed using a 2-tailed Student t-test. DMSO, dimethyl sulfoxide. Kidneys were fixed in 4% paraformaldehyde as described (62). Used here was the GADD153 antibody (Sc-7351), goat antirabbit (A21429, AlexaFluor 555, 1:1,000; Life Technologies, Carlsbad, Calif.) and DAPI (H-1200; Vector Laboratories, Burlingame, Calif.). Pictures were acquired with a Zeiss microscope equipped a 20× objective. Cells positive for GADD153 and the total number of cells were measured with ImageJ. The results are expressed as percentages;
Given that VX-809 alters an ensemble of Hsps, it was evaluated whether VX-809 alters proteins associated with ER stress. To address this question, the levels of three ER stress-associated proteins were measured, 78-kDa glucose-regulated protein (GRP78), ER oxidoreductin 1 (Ero1) and DNA damage-inducible protein 3 (GADD153), also known as C/EBP homologous protein (CHOP) (37). […]

[2] = system: kidneys of Pkd1^fl/fl; Pax8^rtTA; TetO-cre mice; assay: Ki67 staining of kidney sections (proliferation); assay type: in vivo, mouse; settings: 30 mg/kg, vs DMSO-treated mice
Excerpt: FIG. 3A, FIG. 3B, FIG. 3C, and FIG. 3D show cell proliferation is reduced by VX-809. (FIG. 3A-FIG. 3B) Proliferation in kidneys of Pkd1^fl/fl; Pax8^rtTA; TetO-cre mice. Representative images of Ki67 (a cellular marker for proliferation) staining of PN21 kidney sections from DMSO- and VX-809-treated mice. Arrows indicate Ki67-positive cells. Pictures were acquired with a Zeiss microscope equipped with 20× objective. (FIG. 3C) Summary data for Ki67-positive cells. Columns represent averages±standard errors of DMSO (vehicle)-treated (n=3) and VX-809-treated (n=3) mice. Statistical analysis was performed using a two-tailed Student's t test. (FIG. 3D) Proliferation in PN cells. PN cells were treated with VX-809 or DMSO). The bromodeoxyuridine (BrdU) concentration in the cells was measured by using a BrdU cell proliferation assay kit (Millipore Sigma#2750) according to the manufacturer's protocol. Columns represent averages±SEs of the OD of BrdU at 450/550 […]. Data were analyzed using Student's t-test, with n=5-7. Methods were described previously (62). *P>0.05; **P<0.01;
A hallmark of the cysts in ADPKD is an increase in proliferation in response to cAMP. Therefore, it was determined whether VX-809 would affect proliferation.

[3] = system: adenylyl cyclase (AC) 6 and AC3 in PN cells; assay: Western blot of adenylyl cyclase expression; assay type: cell-based, mouse; settings: PN cells treated with VX-809
Method: FIG. 4A, FIG. 4B, FIG. 4C, FIG. 4D, and FIG. 4E show (FIG. 4A-FIG. 4B) cAMP levels are reduced by VX-809. (FIG. 4A) cAMP levels in mouse tissue were reduced by VX-809. The kidney samples (n=6) analyzed were taken from those depicted in FIG. 1. (FIG. 4B) Confluent PN and PH cells were treated with VX-809 (10 μM) or DMSO for 16 hand then treated with forskolin (100 μM) for 30 min before the cells were harvested for the assay. Columns represent means±SEM. Statistical analysis was performed using a two-tailed Student's t-test. Each set of data is from three individual wells; Note that resting cAMP is greater in PN vs PH cells as previously shown (25). Also note that forskolin caused a large increase in cAMP. A smaller increase occurred with IBMX. However, the increase induced by forskolin alone was similar to that by IBMX plus forskolin. […] (FIG. 4C, FIG. 4D, and FIG. 4E) Adenylyl cyclase expression. (FIG. 4C) Western blot showing the expression of adenylyl cyclase (AC) 6 and AC3 in treated and control PN cells. (FIG. 4D-FIG. 4E) Columns represent means±SEM of the AC3 and AC6 expression. The data were analyzed by non-parametric t-test. The experiment was repeated four times. For all graphs, *P<0.05, **P<0.01, and ***P<0.001;
There are two classes of adenylyl cyclases that are regulated by intracellular Ca^2+: one class is activated, and the other inhibited. […]

Question: How did the GADD153 immunostaining [1] turn out when `Cc1ccc(NC(=O)C2(c3ccc4c(c3)OC(F)(F)O4)CC2)nc1-c1cccc(C(=O)O)c1` [VX-809, lumacaftor] was run?
Answer: strong reduction

Question: What about the “cell proliferation (Ki67-positive cells)” value [2] of the same compound?
Answer: significantly inhibit cell proliferation

Question: What about the AC3 levels [3] of the same compound?
Answer: decreased

Question: And the AC6 regulation [3]?
Answer: Regulates AC3 but not AC6
